In ChEMBL document CHEMBL5537119 (Eur J Med Chem, 2024):

Assays:
Histone deacetylase 3 = Histone deacetylase 3 (Homo sapiens, UniProt O15379); test: Inhibition of HDAC3 (unknown origin)
THP-1 [1] = test: Inhibition of Class I/IIb HDAC in human THP-1 cells at 100 uM preincubated for 18 hrs followed by substrate addition and measured after 3 hrs by fluorescence based microplate reader assay relative to control; assay type: cell-based; settings: time 21.0 hrs
THP-1 [2] = test: Inhibition of Class IIa/8 HDAC in human THP-1 cells at 100 uM preincubated for 18 hrs followed by substrate addition and measured after 3 hrs by fluorescence based microplate reader assay relative to control; assay type: cell-based; settings: time 21.0 hrs, values are per cent of control
Histone deacetylase 11 = molecular target: T1, Histone deacetylase 11 (Homo sapiens, UniProt Q96DB2); test: Inhibition of HDAC11 (unknown origin)
T1 sequence (Q96DB2 whole entry): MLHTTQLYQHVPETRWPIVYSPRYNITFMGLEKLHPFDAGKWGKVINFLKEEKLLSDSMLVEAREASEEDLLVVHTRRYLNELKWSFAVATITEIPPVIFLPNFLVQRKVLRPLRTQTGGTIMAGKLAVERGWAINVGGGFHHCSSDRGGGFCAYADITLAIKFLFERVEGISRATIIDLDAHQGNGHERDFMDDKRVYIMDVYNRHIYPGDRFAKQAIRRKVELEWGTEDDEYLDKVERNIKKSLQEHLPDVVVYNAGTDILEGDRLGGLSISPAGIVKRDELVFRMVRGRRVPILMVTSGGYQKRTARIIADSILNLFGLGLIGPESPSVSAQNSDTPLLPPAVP

THP-1 [3] = test: cells; settings: Homo sapiens, THP-1, 72 h
Description: Antiproliferative activity against human THP-1 cells assessed as inhibition of cell growth incubated for 72 hrs by MTT assay

[4] = molecular target: T2, Protein deacetylase HDAC6 (Homo sapiens, UniProt Q9UBN7); test: Inhibition of human recombinant HDAC6 using Boc-Lys(Ac)-AMC as substrate preincubated for 5 mins followed by substrate addition and measured after 90 mins by fluorescence based microplate reader analysis
T2 sequence (Q9UBN7 whole entry): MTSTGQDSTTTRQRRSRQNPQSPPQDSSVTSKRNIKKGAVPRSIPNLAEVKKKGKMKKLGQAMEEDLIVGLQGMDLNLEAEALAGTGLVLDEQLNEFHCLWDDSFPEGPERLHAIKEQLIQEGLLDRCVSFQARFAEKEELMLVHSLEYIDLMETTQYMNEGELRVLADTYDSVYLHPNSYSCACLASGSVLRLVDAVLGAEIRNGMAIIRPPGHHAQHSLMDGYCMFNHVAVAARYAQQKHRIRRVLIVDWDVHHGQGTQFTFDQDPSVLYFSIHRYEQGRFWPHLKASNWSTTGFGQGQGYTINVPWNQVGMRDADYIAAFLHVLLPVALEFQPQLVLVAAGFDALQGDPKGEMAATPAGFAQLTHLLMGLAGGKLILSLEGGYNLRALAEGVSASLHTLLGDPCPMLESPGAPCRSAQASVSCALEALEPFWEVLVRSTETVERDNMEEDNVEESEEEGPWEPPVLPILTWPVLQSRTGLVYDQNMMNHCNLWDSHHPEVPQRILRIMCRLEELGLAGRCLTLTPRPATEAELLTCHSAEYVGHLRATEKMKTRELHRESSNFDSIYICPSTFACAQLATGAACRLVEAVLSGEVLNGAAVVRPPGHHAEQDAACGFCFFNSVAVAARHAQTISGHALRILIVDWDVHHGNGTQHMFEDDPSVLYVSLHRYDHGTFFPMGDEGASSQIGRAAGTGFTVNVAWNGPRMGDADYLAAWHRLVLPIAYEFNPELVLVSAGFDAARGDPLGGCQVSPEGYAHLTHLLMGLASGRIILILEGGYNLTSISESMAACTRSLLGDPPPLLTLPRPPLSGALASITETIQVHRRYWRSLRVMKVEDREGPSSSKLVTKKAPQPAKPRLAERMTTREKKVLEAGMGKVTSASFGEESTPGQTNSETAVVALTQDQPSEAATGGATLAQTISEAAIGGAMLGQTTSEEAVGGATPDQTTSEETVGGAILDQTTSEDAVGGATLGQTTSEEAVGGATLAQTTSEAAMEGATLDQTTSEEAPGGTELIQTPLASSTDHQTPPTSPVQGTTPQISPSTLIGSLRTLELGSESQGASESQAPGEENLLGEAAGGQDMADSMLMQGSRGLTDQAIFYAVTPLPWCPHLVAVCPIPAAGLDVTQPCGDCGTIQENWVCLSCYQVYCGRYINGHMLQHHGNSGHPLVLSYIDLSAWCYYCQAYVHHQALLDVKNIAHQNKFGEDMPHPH

[5] = Inhibition of Class I/IIb HDAC in human THP-1 cells preincubated for 18 hrs followed by substrate addition and measured after 3 hrs by fluorescence based microplate reader assay; assay type: cell-based
[6] = Inhibition of Class IIa/8 HDAC in human THP-1 cells preincubated for 18 hrs followed by substrate addition and measured after 3 hrs by fluorescence based microplate reader assay; assay type: cell-based
Histone deacetylase 5 = Histone deacetylase 5 (Homo sapiens, UniProt Q9UQL6); test: Inhibition of HDAC5 (unknown origin)
Histone deacetylase 4 = Histone deacetylase 4 (Homo sapiens, UniProt P56524); test: Inhibition of human recombinant TEV-8His-tagged HDAC4 (648 to 1057 residues) expressed in Escherichia coli (DE3) Rosetta cells using Boc-Lys-(Tfa)-AMC as substrate preincubated for 5 mins followed by substrate addition and measured after 90 mins by fluorescence based microplate reader analysis
Histone deacetylase 2 = Histone deacetylase 2 (Homo sapiens, UniProt Q92769); test: Inhibition of human recombinant HDAC2 using Boc-Lys(Ac)-AMC as substrate preincubated for 5 mins followed by substrate addition and measured after 90 mins by fluorescence based microplate reader analysis
THP-1 [7] = test: Antiproliferative activity against human THP-1 cells assessed as reduction in cell viability at 100 uM incubated for 72 hrs by MTT assay relative to control; assay type: functional
Histone deacetylase 1 = Histone deacetylase 1 (Homo sapiens, UniProt Q13547); test: Inhibition of HDAC1 (unknown origin)
Histone deacetylase 1, sequence (Q13547 whole entry): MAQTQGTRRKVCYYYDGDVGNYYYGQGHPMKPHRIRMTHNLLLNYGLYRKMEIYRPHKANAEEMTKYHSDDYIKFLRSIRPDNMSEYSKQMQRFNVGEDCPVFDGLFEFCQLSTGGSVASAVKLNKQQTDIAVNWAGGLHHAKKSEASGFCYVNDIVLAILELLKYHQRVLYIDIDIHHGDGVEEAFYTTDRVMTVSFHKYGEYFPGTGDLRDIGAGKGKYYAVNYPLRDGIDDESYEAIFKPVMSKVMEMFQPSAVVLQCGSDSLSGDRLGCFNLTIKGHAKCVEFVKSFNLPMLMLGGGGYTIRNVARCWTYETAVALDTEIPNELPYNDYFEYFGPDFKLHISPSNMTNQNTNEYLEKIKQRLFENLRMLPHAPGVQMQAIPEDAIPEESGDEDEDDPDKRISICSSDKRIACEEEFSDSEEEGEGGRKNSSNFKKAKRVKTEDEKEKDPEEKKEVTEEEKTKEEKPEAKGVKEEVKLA

Histone deacetylase 4, sequence (P56524 whole entry, the tested form may be a part): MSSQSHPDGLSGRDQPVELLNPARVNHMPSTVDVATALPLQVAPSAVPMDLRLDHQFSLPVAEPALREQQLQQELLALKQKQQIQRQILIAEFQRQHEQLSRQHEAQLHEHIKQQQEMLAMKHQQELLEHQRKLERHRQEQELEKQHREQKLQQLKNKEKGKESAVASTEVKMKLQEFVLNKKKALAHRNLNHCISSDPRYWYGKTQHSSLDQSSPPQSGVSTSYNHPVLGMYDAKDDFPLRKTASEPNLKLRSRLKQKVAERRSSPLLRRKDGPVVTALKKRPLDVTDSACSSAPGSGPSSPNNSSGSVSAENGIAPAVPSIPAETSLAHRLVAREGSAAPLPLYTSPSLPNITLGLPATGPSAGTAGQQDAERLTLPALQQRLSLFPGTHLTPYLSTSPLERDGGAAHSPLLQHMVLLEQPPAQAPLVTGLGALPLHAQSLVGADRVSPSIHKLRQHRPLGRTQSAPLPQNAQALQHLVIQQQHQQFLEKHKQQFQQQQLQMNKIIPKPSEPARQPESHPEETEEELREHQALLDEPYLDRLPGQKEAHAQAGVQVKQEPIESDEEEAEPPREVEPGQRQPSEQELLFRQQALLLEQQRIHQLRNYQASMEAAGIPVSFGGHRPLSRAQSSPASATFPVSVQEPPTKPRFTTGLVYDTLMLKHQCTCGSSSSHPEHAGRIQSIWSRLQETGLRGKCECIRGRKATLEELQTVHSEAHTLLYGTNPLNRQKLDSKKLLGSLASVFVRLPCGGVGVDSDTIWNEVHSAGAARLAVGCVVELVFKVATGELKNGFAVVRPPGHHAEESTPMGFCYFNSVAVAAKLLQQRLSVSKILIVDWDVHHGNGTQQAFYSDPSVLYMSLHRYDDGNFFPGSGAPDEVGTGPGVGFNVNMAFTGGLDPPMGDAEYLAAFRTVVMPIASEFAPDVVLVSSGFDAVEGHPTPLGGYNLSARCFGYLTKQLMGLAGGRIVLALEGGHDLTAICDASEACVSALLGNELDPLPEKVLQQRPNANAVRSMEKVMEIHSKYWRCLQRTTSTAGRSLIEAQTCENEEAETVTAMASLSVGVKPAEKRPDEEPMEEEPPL
Histone deacetylase 5, sequence (Q9UQL6 whole entry, the tested form may be a part): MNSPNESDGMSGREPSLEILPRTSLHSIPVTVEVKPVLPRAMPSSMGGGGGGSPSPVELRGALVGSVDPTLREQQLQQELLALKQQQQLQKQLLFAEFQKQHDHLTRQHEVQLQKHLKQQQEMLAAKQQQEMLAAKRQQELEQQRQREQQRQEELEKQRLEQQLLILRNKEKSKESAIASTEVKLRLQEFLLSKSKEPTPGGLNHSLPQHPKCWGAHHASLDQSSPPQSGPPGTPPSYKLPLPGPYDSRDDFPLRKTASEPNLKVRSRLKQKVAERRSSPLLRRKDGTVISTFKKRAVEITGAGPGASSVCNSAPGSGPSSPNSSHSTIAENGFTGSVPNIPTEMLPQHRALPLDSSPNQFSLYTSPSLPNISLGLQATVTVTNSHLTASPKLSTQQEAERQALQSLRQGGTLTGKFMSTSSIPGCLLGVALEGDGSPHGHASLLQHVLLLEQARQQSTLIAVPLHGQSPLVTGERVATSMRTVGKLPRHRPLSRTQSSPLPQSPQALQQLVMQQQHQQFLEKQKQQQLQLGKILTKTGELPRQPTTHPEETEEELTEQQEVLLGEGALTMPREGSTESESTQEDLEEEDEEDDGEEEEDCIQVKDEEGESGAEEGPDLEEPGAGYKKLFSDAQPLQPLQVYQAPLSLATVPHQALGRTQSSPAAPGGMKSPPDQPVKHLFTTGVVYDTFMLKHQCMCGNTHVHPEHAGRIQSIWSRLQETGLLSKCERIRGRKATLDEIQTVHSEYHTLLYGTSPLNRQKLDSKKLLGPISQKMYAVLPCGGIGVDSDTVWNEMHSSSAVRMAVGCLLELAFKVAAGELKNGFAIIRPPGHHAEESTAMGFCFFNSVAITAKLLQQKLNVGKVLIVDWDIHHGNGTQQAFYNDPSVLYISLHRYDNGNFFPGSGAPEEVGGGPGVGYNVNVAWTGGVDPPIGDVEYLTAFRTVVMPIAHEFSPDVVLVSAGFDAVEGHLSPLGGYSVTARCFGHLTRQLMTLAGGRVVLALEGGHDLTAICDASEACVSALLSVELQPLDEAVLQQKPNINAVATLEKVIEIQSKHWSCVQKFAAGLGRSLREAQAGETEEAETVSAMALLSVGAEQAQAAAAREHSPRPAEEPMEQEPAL
Histone deacetylase 3, sequence (O15379 whole entry): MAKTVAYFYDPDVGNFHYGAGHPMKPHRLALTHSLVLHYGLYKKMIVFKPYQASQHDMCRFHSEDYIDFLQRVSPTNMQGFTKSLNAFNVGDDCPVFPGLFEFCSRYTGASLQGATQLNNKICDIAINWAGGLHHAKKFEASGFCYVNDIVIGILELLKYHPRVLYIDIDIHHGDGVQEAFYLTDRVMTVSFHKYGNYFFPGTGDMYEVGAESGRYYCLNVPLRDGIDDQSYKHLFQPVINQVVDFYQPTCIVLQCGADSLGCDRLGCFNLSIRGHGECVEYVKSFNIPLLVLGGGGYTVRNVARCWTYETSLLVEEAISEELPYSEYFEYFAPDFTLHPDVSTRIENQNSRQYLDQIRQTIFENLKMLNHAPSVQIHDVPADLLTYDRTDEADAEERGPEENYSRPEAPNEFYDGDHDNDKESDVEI
Histone deacetylase 2, sequence (Q92769 whole entry): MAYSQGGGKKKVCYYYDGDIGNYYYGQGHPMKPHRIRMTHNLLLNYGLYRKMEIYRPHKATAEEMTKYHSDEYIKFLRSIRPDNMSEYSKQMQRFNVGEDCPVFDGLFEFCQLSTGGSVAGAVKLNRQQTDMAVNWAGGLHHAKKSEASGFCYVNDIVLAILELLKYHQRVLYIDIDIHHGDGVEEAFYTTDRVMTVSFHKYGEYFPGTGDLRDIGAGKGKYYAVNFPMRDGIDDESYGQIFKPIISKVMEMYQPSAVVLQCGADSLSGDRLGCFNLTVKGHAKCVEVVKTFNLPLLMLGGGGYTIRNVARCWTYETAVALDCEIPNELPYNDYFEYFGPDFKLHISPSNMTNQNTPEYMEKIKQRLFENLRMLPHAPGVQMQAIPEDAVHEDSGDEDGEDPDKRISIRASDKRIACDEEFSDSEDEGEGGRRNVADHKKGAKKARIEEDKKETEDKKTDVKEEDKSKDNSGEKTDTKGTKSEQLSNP

Question: With `O=C(NOCc1coc(-c2ccccc2)n1)c1ccc(-c2noc(C(F)(F)F)n2)cc1` as the molecule, how does the IC50 (Histone deacetylase 3) read?
Answer: > 100 µM

Question: What about the inhibition (THP-1 [1]) of the same molecule?
Answer: 0%

Question: And the residual activity (THP-1 [2])?
Answer: 76%

Question: And the IC50 (Histone deacetylase 11)?
Answer: > 100 µM

Question: And the IC50 (THP-1 [3])?
Answer: ~100 µM

Question: What about the IC50 [4] of the same molecule?
Answer: > 100 µM

Question: What about the IC50 [5] of the same molecule?
Answer: > 100 µM

Question: What about the IC50 [6] of the same molecule?
Answer: 38.1 µM

Question: What about the IC50 (Histone deacetylase 5) of the same molecule?
Answer: 1.09 µM

Question: And the IC50 (Histone deacetylase 4)?
Answer: 0.118 µM

Question: And the IC50 (Histone deacetylase 2)?
Answer: > 100 µM

Question: And the Activity (THP-1 [7])?
Answer: 47%

Question: What about the IC50 (Histone deacetylase 1) of the same molecule?
Answer: > 100 µM
